As a reminder, the logP is a log measure of how a compound divides between an organic and an aqueous phase. A higher logP goes with a more lipophilic compound.

Take `O=c1[nH]c(=O)n([C@H]2CC[C@@H](CO)O2)cc1I`: the logP was -0.61.
Next, `[N-]=[N+]=N[C@H]1C[C@H](n2cnc3c(N)ncnc32)O[C@@H]1CO`: 0.35; `O=c1ccn(C2CC(F)C(CO)O2)c(=O)[nH]1` (stereo not given): -0.49; `O=c1[nH]c(=O)n([C@H]2CC[C@@H](CO)O2)cc1Cl`: -1.11.
`O=c1[nH]c(=O)n([C@H]2C[C@H](F)[C@@H](CO)O2)cc1Cl` showed a logP of -0.17.
Next, `O=c1ccn(C2CC(O)C(CO)O2)c(=O)[nH]1` (stereo not given): -1.51; `Nc1nc(=O)c2ncn([C@H]3CC[C@@H](CO)O3)c2[nH]1`: -1.01.
Next, `[N-]=[N+]=NC1C(CO)OC(n2cnc3c(N)ncnc32)C1N=[N+]=[N-]` (stereo not given): 0.8.
In turn, `Nc1nc(N)c2ncn(C3CC(O)C(CO)O3)c2n1` (stereo not given) showed a logP of -0.52.
Next, `O=c1[nH]c(=O)n(C2CCC(CO)O2)cc1Br` (stereo not given): -0.99; `Nc1nc(=O)c2ncn([C@H]3C[C@H](F)[C@@H](CO)O3)c2[nH]1`: -0.66.
Next, `[N-]=[N+]=NC1CC(n2ccc(=O)[nH]c2=O)OC1CO` (stereo not given): -0.32; `Nc1nc(=O)c2ncn([C@H]3C=C[C@@H](CO)O3)c2[nH]1`: -1.21; `O=c1ccn([C@H]2C=C[C@@H](CO)O2)c(=O)[nH]1`: -1.07.
Consider `Nc1nc(N)c2ncn(C3CC(F)C(CO)O3)c2n1` (stereo not given), for which the logP was determined as 0.05.
`O=c1[nH]c(=O)n(C2CC(F)C(CO)O2)cc1I` (stereo not given) displayed a logP of 0.21.
Next, `[N-]=[N+]=N[C@H]1C[C@H](n2cnc3c(N)nc(N)nc32)O[C@@H]1CO`: 0.24.
In turn, `O=c1[nH]c(=O)n(C2CC(F)C(CO)O2)cc1Br` (stereo not given) had a logP of -0.04.
The molecule `Cc1cn([C@H]2C[C@H](F)[C@@H](CO)O2)c(=O)[nH]c1=O` gave a logP of -0.28.
The value for `Nc1ncnc2c1ncn2[C@H]1C[C@H](F)[C@@H](CO)O1` was 0.08.

The record behind these values is the OPERA property sets (Mansouri et al. 2018).
